# Where two headings read alike, the source gives them in different places.
# Legend:
# cancer cells = test: Matrigel chemoinvasion assay in Boyden chambers; assay type: cell-based; settings: for inhibition at 50 µM: read-out: % Inhibition of Chemoinvasion 50 uM
# Endothelial cells = test: Endothelial cell tube formation (capillary formation); assay type: cell-based
# murine melanoma = test: Metastasis formation in the murine melanoma model; assay type: in vivo, mice; settings: 50 mg/kg daily injections for 21 d, lung tumors counted, vs untreated animals
# MMP2 = biological target: T1, MMP2 (Homo sapiens, UniProt P08253); test: Activity on pure MMP2 enzyme; assay type: biochemical
# T1 sequence (P08253 110-660): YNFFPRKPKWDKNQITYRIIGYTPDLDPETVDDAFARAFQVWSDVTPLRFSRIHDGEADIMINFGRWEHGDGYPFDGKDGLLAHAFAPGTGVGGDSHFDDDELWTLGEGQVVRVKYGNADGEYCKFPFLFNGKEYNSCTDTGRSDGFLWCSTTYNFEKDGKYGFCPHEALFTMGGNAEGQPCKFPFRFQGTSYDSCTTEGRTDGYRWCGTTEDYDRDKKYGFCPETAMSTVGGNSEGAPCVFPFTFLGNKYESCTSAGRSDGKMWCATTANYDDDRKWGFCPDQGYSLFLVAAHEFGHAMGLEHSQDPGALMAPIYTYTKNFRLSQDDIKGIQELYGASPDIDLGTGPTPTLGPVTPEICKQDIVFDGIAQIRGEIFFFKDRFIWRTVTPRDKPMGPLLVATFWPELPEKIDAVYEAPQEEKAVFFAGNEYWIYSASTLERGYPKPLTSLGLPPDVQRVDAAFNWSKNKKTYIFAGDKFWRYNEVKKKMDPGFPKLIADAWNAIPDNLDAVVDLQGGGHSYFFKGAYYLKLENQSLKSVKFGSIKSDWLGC
structure (smiles),measurement,setting,value
"CNC(=O)[C@H](Cc1ccccc1)NC(=O)[C@H](CC(C)C)[C@H](CSc1cccs1)C(=O)NO [Batimastat, reference compound]",inhibition at 50 µM,cancer cells,40%
CCOC([O-])[PH](=O)C(=O)N(C)O.[Na+] (stereo not shown) [Compound 1],Activity,cancer cells,++ (key: ++++: active at submicromolar concen-tration; +++: active at 1-10 μM; ++: active at 50-100 μM; +: active at 100 μM; −: not active at 100 μM)
O=C(OCc1ccccc1)P(=O)([O-])O.[Na+] [Compound 5],Activity,cancer cells,++ (key: ++++: active at submicromolar concen-tration; +++: active at 1-10 μM; ++: active at 50-100 μM; +: active at 100 μM; −: not active at 100 μM)
O=C(c1ccccc1)P(=O)([O-])O.[Na+] [Compound 7],Activity,cancer cells,++ (key: ++++: active at submicromolar concen-tration; +++: active at 1-10 μM; ++: active at 50-100 μM; +: active at 100 μM; −: not active at 100 μM)
"O=C(c1ccc(Cl)cc1)P(=O)([O-])[O-].[Na+].[Na+] [Compound 8, p-chlorobenzoylphosphonic acid sodium salt]",Activity,cancer cells,+++ (key: ++++: active at submicromolar concen-tration; +++: active at 1-10 μM; ++: active at 50-100 μM; +: active at 100 μM; −: not active at 100 μM)
same,MMP inhibiting activity,cancer cells,considerable MMP inhibiting activity
CCC(=O)P(=O)([O-])O.[Na+] [Compound 10],Activity,cancer cells,+ (key: ++++: active at submicromolar concen-tration; +++: active at 1-10 μM; ++: active at 50-100 μM; +: active at 100 μM; −: not active at 100 μM)
CCC(=O)P(=O)([O-])OC.[Na+] [Compound 11],Activity,cancer cells,+ (key: ++++: active at submicromolar concen-tration; +++: active at 1-10 μM; ++: active at 50-100 μM; +: active at 100 μM; −: not active at 100 μM)
O=C(Cc1ccccc1)P(=O)([O-])O.[Na+] [Compound 12],Activity,cancer cells,+ (key: ++++: active at submicromolar concen-tration; +++: active at 1-10 μM; ++: active at 50-100 μM; +: active at 100 μM; −: not active at 100 μM)
COP(=O)([O-])C(=O)Cc1ccccc1.[Na+] [Compound 13],Activity,cancer cells,++ (key: ++++: active at submicromolar concen-tration; +++: active at 1-10 μM; ++: active at 50-100 μM; +: active at 100 μM; −: not active at 100 μM)
CCC(=NO)P(=O)([O-])OC.[Li+] [Compound 14],Activity,cancer cells,+ (key: ++++: active at submicromolar concen-tration; +++: active at 1-10 μM; ++: active at 50-100 μM; +: active at 100 μM; −: not active at 100 μM)
O=C(NCc1ccccc1)P(=O)([O-])O.[Na+] [Compound 16],Activity,cancer cells,++ (key: ++++: active at submicromolar concen-tration; +++: active at 1-10 μM; ++: active at 50-100 μM; +: active at 100 μM; −: not active at 100 μM)
O=C(NCCc1ccccc1)P(=O)([O-])O.[Na+] [Compound 17],Activity,"cancer cells; preliminary screening, invasion/chemotaxis chambers vs untreated preparations",+ (active at 100 μM)
CCCCNC(=O)P(=O)([O-])O.[Na+] [Compound 23],Activity,cancer cells,+ (key: ++++: active at submicromolar concen-tration; +++: active at 1-10 μM; ++: active at 50-100 μM; +: active at 100 μM; −: not active at 100 μM)
"CN(C)CCNC(=O)P(=O)(O)O [Compound 26, N-(2-dimethylaminoethyl)phosphonoformamide Betaine]",inhibition at 50 µM,"Endothelial cells; Endothelial cell, read-out: % Inhibition of Capillary Formation 50 µM",75%
same,% Inhibition of Metastasis Formation 50 mg/kg for 21 d,murine melanoma,73%
same,Activity,cancer cells,++++ (key: ++++: active at submicromolar concen-tration; +++: active at 1-10 μM; ++: active at 50-100 μM; +: active at 100 μM; −: not active at 100 μM)
same,inhibition at 50 µM,cancer cells,66%
same,IC50,MMP2,25 nM
O=C(NC1CCCCC1)P(=O)(O)O [Compound 33],Activity,cancer cells,++++ (key: ++++: active at submicromolar concen-tration; +++: active at 1-10 μM; ++: active at 50-100 μM; +: active at 100 μM; −: not active at 100 μM)
"O=P([O-])([O-])Cc1ccc(Cl)cc1.[Na+].[Na+] [Compound 38, p-chlorobenzylphosphonic acid sodium salt, reference compound]",Activity,cancer cells,− (key: ++++: active at submicromolar concen-tration; +++: active at 1-10 μM; ++: active at 50-100 μM; +: active at 100 μM; −: not active at 100 μM)
same,MMP inhibiting activity,cancer cells,completely devoid of inhibitory activity
"O=C(NC1CCCCC1)P(=O)(O)O [Example 5, Hydrogen Sodium N-cyclohexylcarbamoylphosphonate]",concentration at which active in the Boyden chamber chemoinvasion assay,cancer cells,1 µM
same,IC50,MMP2,80 nM
"O=C(NCCN1CCOCC1)P(=O)(O)O [Example 7, N-(2-[4-morpholino]ethyl)phosphonoformamide Betaine]",concentration at which active in the Boyden chamber chemoinvasion assay,cancer cells,100 µM
"O=C(NCCN1CCCCC1)P(=O)(O)O [Example 8, N-(2-[1-piperidino]ethyl)phosphonoformamide Betaine]",concentration at which active in the Boyden chamber chemoinvasion assay,cancer cells,100 µM
"O=C(NCCN1CCCC1)P(=O)(O)O [Example 9, N-(2-[1-pyrrolidino]ethyl)phosphonoformamide Betaine]",concentration at which active in the Boyden chamber chemoinvasion assay,cancer cells,100 µM
"CC(=O)NCCNC(=O)P(=O)(O)O [Example 10, N-(2-acetamidoethyl)phosphonoformamide]",concentration at which active in the Boyden chamber chemoinvasion assay,cancer cells,100 µM
"O=C(NCCc1c[nH]cn1)P(=O)(O)O [Example 15, Phosphonoformylhistamine]",% Inhibition of Chemoinvasion 50 uM,cancer cells,15%
"O=C(NC1CCCC1)P(=O)(O)O [Example 16, N-cyclopentylcarbamoylphosphonic Acid]",% Inhibition of Capillary Formation 50 UM,Endothelial cells,70%
same,% Inhibition of Metastasis Formation 50 mg/kg for 21 d,murine melanoma,70%
same,% Inhibition of Chemoinvasion 50 uM,cancer cells; 50 uM,65%
"O=C(NCCSCc1ccccc1)P(=O)(O)O [Example 17, N-(S-benzylmercaptoethyl)carbamoylphosphonic Acid]",% Inhibition of Capillary Formation 50 UM,Endothelial cells,58%
same,% Inhibition of Chemoinvasion 50 uM,cancer cells; 50 uM,61%
"CNC(=O)[C@@H](NC(=O)[C@H](CC(C)C)NC(=O)P(=O)(O)O)C(C)C [Example 18, Phosphonoformyl-Leu-Val-NHMe]",% Inhibition of Capillary Formation 50 UM,Endothelial cells,42%
same,% Inhibition of Chemoinvasion 50 uM,cancer cells; 50 uM,38%
"CNC(=O)[C@H](Cc1ccccc1)NC(=O)[C@H](CC(C)C)NC(=O)P(=O)(O)O [Example 19, Phosphonoformyl-Leu-Phe-NHMe]",% Inhibition of Capillary Formation 50 UM,Endothelial cells,60%
same,% Inhibition of Chemoinvasion 50 uM,cancer cells,55%
"CNC(=O)[C@H](Cc1ccc(OC)cc1)NC(=O)[C@H](CC(C)C)NC(=O)P(=O)(O)O [Example 20, Phosphonoformyl-Leu-Tyr(Me)-NHMe]",% Inhibition of Capillary Formation 50 UM,Endothelial cells,38%
same,% Inhibition of Metastasis Formation 50 mg/kg for 21 d,murine melanoma,75%
same,% Inhibition of Chemoinvasion 50 uM,cancer cells; 50 uM,39%
"CNC(=O)C(NC(=O)C(Cc1ccccc1)NC(=O)P(=O)(O)O)C(C)C (stereo not drawn) [Example 21, Phosphonoformyl-Phe-Val-CONHMe]",% Inhibition of Chemoinvasion 50 uM,cancer cells; 50 uM,41%
"CNC(=O)[C@H](Cc1ccc(OC)cc1)NC(=O)[C@@H](CC(=O)NO)CC(C)C [SC-44463, reference compound]",% Inhibition of Metastasis Formation 50 mg/kg for 21 d,murine melanoma,70-75%
